Measurements: patent US20260217688A1, “INHIBITORS OF JAK2” (Llydaw Therapeutics, Inc., priority 2022, published 2026)

Columns and labels:
Ba/F3 (JAK2 V617F) cells = test: Proliferation inhibition assay (CellTiter-Glo), Ba/F3 JAK2 V617F; type: cell-based; conditions: Mus musculus, BaF3; without IL3, 72 h; read-out: Ba/F3 JAK2 V617F, CC50 3 days
Experimental: (§1) Ba/F3 (JAK2 wt) (ABM, T3076) cells and Ba/F3 (JAK2 V617F) (WuXi AppTec) cells were grown in RPMI-1640 (Gibco, cat. number 21870) supplemented with 10% FBS (Hyclone Laboratories Inc, Cat #SV30160.03), 1× Antibiotic-antimycotic (Gibco, Cat #15240-062), 2× Sodium pyruvate (Paneco, cat #F023), 2× Essential amino acids (Paneco, cat #F115/100), 1× Non-Essential amino acids (Paneco, cat #F116) at 37° C. in 5% CO2 atmosphere.
(§2) For the proliferation inhibition assay Ba/F3 (JAK2 wt) and Ba/F3 (JAK2 V617F) cells were seeded into a CellBIND® 384-well Flat Clear Bottom Black Polystyrene Microplates (Corning, USA, Cat #3770) at a density of 4000 cells per well in complete culture medium with or without 10 ng/ml rmIL-3 (RD systems, USA, Cat #403-ML-025) using Biomek FX/NX (384) liquid handler, 45 μl of cell suspension in complete culture medium per well. 500× compound's stocks in DMSO (Sigma Cat #D2650) were prepared in compounds plate (Diamond Well Plate, Axigen, Cat #P-384-120 SQ-C-S) applying Biomek 2000. 1 μl of 500× compounds stock was added to 49 μl of complete culture medium into Dilution plate (Diamond Well Plate, Axigen, Cat #P-384-120 SQ-C-S), mixed and then 5 μl of 10× compounds solution was transferred to cells using Biomek FX/NX (384) liquid handler. The centrifugation at 100 g for 1 min at Eppendorf 5810 followed. Final DMSO concentration in assay was 0.2%. All treatments were performed in technical and biological duplicates. Treated cells were incubated for 72 h at 37° C. with 5% CO2.
(§3) After 3 days of incubation, CellTiter-Glo Luminescent Cell Viability Assay (Promega) was performed. 10 μl of CellTiter-Glo (Promega, CAT #G7572) was added to the cells using Biomek FX/NX (384) liquid handler. The assay plate was centrifuged at 100 g for 1 min and luminescence signal was measured using Microplate Reader (CLARIOStar).

[1] = as above; type: cell-based; conditions: mouse, Ba/F3 (JAK2 V617F) cells; with 10 ng/ml rmIL-3, 72 h; read-out: Ba/F3 JAK2 V617F + IL3, CC50 3 days
Experimental: as §1, §2, §3

[2] = Proliferation inhibition assay (CellTiter-Glo), Ba/F3 JAK2 wt; type: cell-based; conditions: mouse, Ba/F3 (JAK2 wt) cells
Experimental: as §1, §2, §3

JAK2 JH2 = molecular target: T1, JAK2 JH2 (Homo sapiens, UniProt O60674); test: JAK2 JH2 TR-FRET Assay; type: binding; conditions: JAK2 JH2 1 nM, Tracer ZE84-0003 10 nM
T1 construct: Enzyme: JAK2 JH2, His-Avi-Tag, Biotin-Labeled (BPS Bioscience, Cat #79074) 1 nM; His; purchased BPS Bioscience 79074
T1 sequence (O60674 545-809 limits assumed): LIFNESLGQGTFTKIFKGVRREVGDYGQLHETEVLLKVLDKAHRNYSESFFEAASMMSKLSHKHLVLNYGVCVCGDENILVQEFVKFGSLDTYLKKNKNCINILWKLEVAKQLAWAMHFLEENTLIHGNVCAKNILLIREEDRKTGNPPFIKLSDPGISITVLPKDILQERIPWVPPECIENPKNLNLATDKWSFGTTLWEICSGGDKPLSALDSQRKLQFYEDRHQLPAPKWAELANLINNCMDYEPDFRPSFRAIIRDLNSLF
Experimental: Assay Buffer 1×: • 20 mM HEPES pH 7.2-7.4; • 10 mM MgCl2; • 0.015% Brij-35; • 2 mM DTT; • 0.05 mg/ml BSA.
Final assay concentrations: • DMSO: 0.25%; • Streptavidin Tb-cryptate (Cisbio, Cat #610SATLB) 0.2 nM; • Enzyme: JAK2 JH2, His-Avi-Tag, Biotin-Labeled (BPS Bioscience, Cat #79074) 1 nM; • Probe: Tracer ZE84-0003 (ChemRar) 10 nM.
Materials: • Reaction plate: ProxiPlate-384 Plus White Plate (PerkinElmer); • Dilution plate: Diamond Well Plate (Axygen, Cat #P-384-120 SQ-C-S); • Compounds plate: Diamond Well Plate (Axygen, Cat #P-384-120 SQ-C-S).
Assay protocol: • 1. Prepare 400× solutions of compounds in DMSO into Compounds plate; • 2. Prepare Dilution plate: add 39 μL of 1× Assay buffer per well of Dilution plate; • 3. Prepare 2×Tb-cryptate mix in 1× Assay buffer. Add 10 μL of 2×Tb-cryptate mix to K-(Tb-cryptate and Probe without Enzyme) wells and blank (Tb-cryptate without Probe and Enzyme) wells; • 4. Add JAK2 JH2 into the rest of 2×Tb-cryptate mix to make 2×JAK2 JH2+Tb-cryptate mix. Add 10 μL per well into Reaction plate; • 5. Centrifuge plate at 200 g for 1 min; • 6. Dilute 1 μL of 400× compounds in 39 μL 1× Assay buffer in Dilution plate; • 7. Add 2 μL of 10× compounds from Dilution plate to Reaction plate with 10 μL of JAK2 JH2+Tb-cryptate mix; • 8. Centrifuge plate at 200 g for 1 min; • 9. Pre-incubate Reaction plate with compounds 15 min; • 10. Prepare 2.5× Tracer mix; • 11. Add 8 μL of 2.5× Tracer mix into appropriate wells of Reaction plate; • 12. Centrifuge plate at 800 g for 3 min; • 13. Incubate at rt for 15 min; • 14. Measure Fluorescence using Microplate Reader (Ex: TR, Em1/Em2: 482/520). The results of this assay are shown in the Table B. The values of EC50 shown as a letters A-D, where: A≤0.01 μM; 0.01 μM<B≤0.05 μM; 0.05 μM<C≤0.1 μM; D>0.1.

[3] = with 10 ng/ml rmIL-3, 72 h, read-out: Ba/F3 JAK2 wt + IL3, CC50 3 days
[4] = without IL3, 72 h, read-out: Ba/F3 JAK2 wt, CC50 3 days

Structure (SMILES) | CC50 (Ba/F3 (JAK2 V617F) cells) [µM] | CC50 at 72 h [1] [µM] | CC50 at 72 h [2, 3] [µM] | CC50 at 72 h [2, 4] [µM] | EC50 (JAK2 JH2) [µM]
COc1c(Nc2nc(Nc3cnn(-c4ccccc4)c3)ncc2C(N)=O)cccc1-c1ncn(C)n1 [Compound 6, 4-((2-Methoxy-3-(1-methyl-1H-1,2,4-triazol-3-yl)phenyl)amino)-2-((1-phenyl-1H-pyrazol-4-yl)amino)pyrimidine-5-carboxamide] | ≤ 0.5 | ≤ 0.5 | > 10 | > 10 | 0.01 to 0.05
COc1c(Nc2nc(Nc3cnn(C4CCNCC4)c3)ncc2C(N)=O)cccc1-c1ncn(C)n1 [Compound 7, 4-((2-Methoxy-3-(1-methyl-1H-1,2,4-triazol-3-yl)phenyl)amino)-2-((1-(piperidin-4-yl)-1H-pyrazol-4-yl)amino)pyrimidine-5-carboxamide 2,2,2-trifluoroacetate] | 1 to 5 | > 10 | > 10 | > 10 | 0.01 to 0.05
COc1c(Nc2nc(Nc3cnn(C4CCNCC4)c3)ncc2C(N)=O)cccc1-c1nc2ccccc2o1 [Compound 8, 4-[3-(1,3-benzoxazol-2-yl)-2-methoxy-anilino]-2-[[1-(4-piperidyl)pyrazol-4-yl]amino]pyrimidine-5-carboxamide] | 1 to 5 | 5 to 10 | > 10 | > 10 | ≤ 0.01
COc1c(Nc2nc(Nc3cnn(C4CCCCC4)c3)ncc2C(N)=O)cccc1-c1ncn(C)n1 [Compound 11, 2-[(1-cyclohexylpyrazol-4-yl)amino]-4-[2-methoxy-3-(1-methyl-1,2,4-triazol-3-yl)anilino]pyrimidine-5-carboxamide] | ≤ 0.5 | ≤ 0.5 | 1 to 5 | 1 to 5 | ≤ 0.01
COc1c(Nc2nc(Nc3cnn(C)c3)ncc2C(N)=O)cccc1-c1nc2ccccc2o1 [Compound 12, 4-[3-(1,3-benzoxazol-2-yl)-2-methoxy-anilino]-2-[(1-methylpyrazol-4-yl)amino]pyrimidine-5-carboxamide] | ≤ 0.5 | 1 to 5 | > 10 | > 10 | 0.01 to 0.05
COc1c(Nc2nc(Nc3cnn(C4CCOCC4)c3)ncc2C(N)=O)cccc1-c1ncn(C)n1 [Compound 14, 4-[2-methoxy-3-(1-methyl-1,2,4-triazol-3-yl)anilino]-2-[(1-tetrahydropyran-4-ylpyrazol-4-yl)amino]pyrimidine-5-carboxamide] | ≤ 0.5 | 5 to 10 | > 10 | > 10 | ≤ 0.01
COc1c(Nc2nc(Nc3cnn(C(C)C)c3)ncc2C(N)=O)cccc1-c1nc2ccccc2o1 [Compound 16, 4-[3-(1,3-benzoxazol-2-yl)-2-methoxy-anilino]-2-[(1-isopropylpyrazol-4-yl)amino]pyrimidine-5-carboxamide] | ≤ 0.5 | 0.5 to 1 | 5 to 10 | > 10 | 0.01 to 0.05
COc1c(Nc2nc(Nc3c(C)nn(C)c3C)ncc2C(N)=O)cccc1-c1ncn(C)n1 [Compound 17, 4-[2-methoxy-3-(1-methyl-1,2,4-triazol-3-yl)anilino]-2-[(1,3,5-trimethylpyrazol-4-yl)amino]pyrimidine-5-carboxamide] | > 10 | > 10 | > 10 | > 10 | > 0.1
CCn1nc(C)c(Nc2ncc(C(N)=O)c(Nc3cccc(-c4ncn(C)n4)c3OC)n2)c1C [Compound 18, 2-[(1-ethyl-3,5-dimethyl-pyrazol-4-yl)amino]-4-[2-methoxy-3-(1-methyl-1,2,4-triazol-3-yl)anilino]pyrimidine-5-carboxamide] | 5 to 10 | > 10 | > 10 | > 10 | > 0.1
COc1c(Nc2nc(Nc3cnn(CC4CCCCC4)c3)ncc2C(N)=O)cccc1-c1ncn(C)n1 [Compound 22, 2-[[1-(cyclohexylmethyl)pyrazol-4-yl]amino]-4-[2-methoxy-3-(1-methyl-1,2,4-triazol-3-yl)anilino]pyrimidine-5-carboxamide] | ≤ 0.5 | 1 to 5 | 5 to 10 | 5 to 10 | 0.01 to 0.05
COc1c(Nc2nc(Nc3cnn(CCC(C)C)c3)ncc2C(N)=O)cccc1-c1ncn(C)n1 [Compound 24, 2-[(1-isopentylpyrazol-4-yl)amino]-4-[2-methoxy-3-(1-methyl-1,2,4-triazol-3-yl)anilino]pyrimidine-5-carboxamide] | ≤ 0.5 | 0.5 to 1 | 5 to 10 | > 10 | 0.01 to 0.05
CCCCCCn1cc(Nc2ncc(C(N)=O)c(Nc3cccc(-c4ncn(C)n4)c3OC)n2)cn1 [Compound 26, 2-[(1-hexylpyrazol-4-yl)amino]-4-[2-methoxy-3-(1-methyl-1,2,4-triazol-3-yl)anilino]pyrimidine-5-carboxamide] | ≤ 0.5 | 0.5 to 1 | 5 to 10 | 5 to 10 | 0.01 to 0.05
COc1c(Nc2nc(Nc3cnn(CCCN(C)C)c3)ncc2C(N)=O)cccc1-c1ncn(C)n1 [Compound 28, 2-[[1-[3-(dimethylamino)propyl]pyrazol-4-yl]amino]-4-[2-methoxy-3-(1-methyl-1,2,4-triazol-3-yl)anilino]pyrimidine-5-carboxamide] | 5 to 10 | > 10 | > 10 | > 10 | > 0.1
COc1c(Nc2nc(Nc3cnn(CCN(CC(C)C)CC(C)C)c3)ncc2C(N)=O)cccc1-c1ncn(C)n1 [Compound 29, 2-(1-(2-(Diisobutylamino)ethyl)-1H-pyrazol-4-ylamino)-4-(2-methoxy-3-(1-methyl-1H-1,2,4-triazol-3-yl)phenylamino)pyrimidine-5-carboxamide] | ≤ 0.5 | 1 to 5 | 5 to 10 | 1 to 5 | > 0.1
COc1c(Nc2nc(Nc3cnn(C45CC6CC(CC(C6)C4)C5)c3)ncc2C(N)=O)cccc1-c1ncn(C)n1 [Compound 30, 2-((1-(1-Adamantyl)-1H-pyrazol-4-yl)amino)-4-((2-methoxy-3-(1-methyl-1H-1,2,4-triazol-3-yl)phenyl)amino)pyrimidine-5-carboxamide] | ≤ 0.5 | 0.5 to 1 | 1 to 5 | 1 to 5 | 0.01 to 0.05
